Measurements published in publication PMC4865847, “Putative histidine kinase inhibitors with antibacterial effect against multi-drug resistant clinical isolates identified by in vitro and in silico screens” (Scientific Reports, 2016).
Converted amounts (≈) assume the structure as drawn. “And” between values parts separate entries of the source, which are not always exact repeats. Equal values may be shown once. Read-outs that look alike come from different tables or passages of the source. Marks after values point to notes of the source that are not given here.

How the values were obtained:
S. pneumoniae WalK = target: T1, S. pneumoniae WalK (Streptococcus pneumoniae, UniProt Q8DPL8); assay: In vitro autophosphorylation kinase assay with γ-32P-ATP, WalK; type: biochemical; conditions: for IC50: autophosphorylation, one time point (30 sec), 10% DMSO
T1 construct: WalK (amino acids from 208 to 449); N-terminal His6-3C site of vector pOPINF (own knowledge of the vector); made in house; host or cells: E. coli RIL
T1 sequence (Q8DPL8 208-449): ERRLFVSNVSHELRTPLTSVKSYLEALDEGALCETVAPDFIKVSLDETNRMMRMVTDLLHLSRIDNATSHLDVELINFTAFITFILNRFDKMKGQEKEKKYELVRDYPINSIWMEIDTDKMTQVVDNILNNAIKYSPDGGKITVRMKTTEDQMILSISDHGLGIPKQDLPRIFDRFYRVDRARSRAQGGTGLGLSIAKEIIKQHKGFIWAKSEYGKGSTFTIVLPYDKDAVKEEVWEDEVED
Experimental: (§1) To evaluate the inhibitory capacity of selected hits from DSF, SBVS and LBSS in vitro autophosphorylation kinase assays with γ-^32P-ATP were performed as previously described. Ligands were dissolved in 100% DMSO. […] Controls lacking ligands contained an equal concentration of DMSO. Inhibition of autophosphorylation was determined by incubating 0.12 mg/ml (≈4 μM) HK and up to 20 mM fragment in kinase buffer (50 mM Tris HCl, pH 8.5, 50 mM KCl, 5 mM MgCl2, 0.5 mM EDTA and 0.1 mM DTT). Autophosporylation reactions were initiated by addition of 0.1 μCi/μl γ-^32P-ATP containing from 0.03 to 0.06 μM ATP (final concentrations). Autophosphorylation was quenched with 2xSDS-PAGE sample buffer supplemented with 50 mM EDTA. […] After electrophoresis, the bottoms of the gels were removed to lower the background from the unincorporated radiolabeled ATP. Gels were dried without staining on a Bio-Rad Gel Air drying system and the phosphorylated protein was quantified by phosphor-imaging. Prism GraphPad was used for curve fitting and statistical analysis.

Escherichia coli = assay: Antibacterial susceptibility testing (MIC/MBC), E. coli; type: cell-based
Experimental: (§2) Minimal inhibitory concentrations (MICs) were determined following a standard double-dilution method. […] For S. pneumoniae MICs were determined by adapting the standard double-dilution method to anaerobic conditions and of this microorganism (use of Todd Hewitt Yeast extract with 200 U/mL of catalase and continuous monitoring of growth).

T. maritima HK853 = target: T2, T. maritima HK853 (Thermotoga maritima, UniProt Q9WZV7); assay: In vitro autophosphorylation kinase assay with γ-32P-ATP, HK853; type: biochemical; conditions: autophosphorylation, one time point (30 sec), 10% DMSO; read-out: IC50 HK853
T2 sequence (Q9WZV7 232-489): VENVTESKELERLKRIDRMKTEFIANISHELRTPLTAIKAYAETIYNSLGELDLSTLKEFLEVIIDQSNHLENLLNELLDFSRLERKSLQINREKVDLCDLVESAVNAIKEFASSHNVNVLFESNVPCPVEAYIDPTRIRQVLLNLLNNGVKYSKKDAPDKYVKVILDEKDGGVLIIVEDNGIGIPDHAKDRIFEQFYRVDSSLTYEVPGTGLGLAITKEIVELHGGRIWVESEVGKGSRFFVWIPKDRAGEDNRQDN
Experimental: (§3) To evaluate the inhibitory capacity of selected hits from DSF, SBVS and LBSS in vitro autophosphorylation kinase assays with γ-^32P-ATP were performed as previously described. Ligands were dissolved in 100% DMSO. […] Controls lacking ligands contained an equal concentration of DMSO. Inhibition of autophosphorylation was determined by incubating 0.12 mg/ml (≈4 μM) HK and up to 20 mM fragment in kinase buffer (50 mM Tris HCl, pH 8.5, 50 mM KCl, 5 mM MgCl2, 0.5 mM EDTA and 0.1 mM DTT). Autophosporylation reactions were initiated by addition of 0.1 μCi/μl γ-^32P-ATP containing from 0.03 to 0.06 μM ATP (final concentrations). Autophosphorylation was quenched with 2xSDS-PAGE sample buffer supplemented with 50 mM EDTA. Samples were applied without heating to 15% (w/v) Tris-glycine SDS-polyacrylamide gels. After electrophoresis, the bottoms of the gels were removed to lower the background from the unincorporated radiolabeled ATP. Gels were dried without staining on a Bio-Rad Gel Air drying system and the phosphorylated protein was quantified by phosphor-imaging. Prism GraphPad was used for curve fitting and statistical analysis.

E. coli PhoR (PhoR^E) [1] = target: T3, E. coli PhoR (PhoR^E) (Escherichia coli, UniProt P08400); assay: Aggregation analysis by native-PAGE, PhoR^E; conditions: 2 mM (S5 and S6 5 mM), 10% DMSO
T3 construct: The catalytic portion (DHp and CA domain) of E. coli PhoR (PhoR^E); made in house; host or cells: E. coli RIL
T3 sequence (P08400 210-425): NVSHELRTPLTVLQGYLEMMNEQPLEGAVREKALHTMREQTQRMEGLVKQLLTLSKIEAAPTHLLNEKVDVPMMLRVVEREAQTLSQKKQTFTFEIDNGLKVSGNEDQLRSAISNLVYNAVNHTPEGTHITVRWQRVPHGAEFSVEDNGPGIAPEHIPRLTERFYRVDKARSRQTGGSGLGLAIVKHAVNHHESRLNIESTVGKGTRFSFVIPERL
Experimental: (§4) E. coli PhoR and EnvZ, and S. aureus PhoR ([…], final concentration) were prepared in kinase buffer. […] DMSO in the assays was maintained to a final concentration 10% (v/v). After 30 min of incubation at room temperature Native polyacrylamide gel electrophoresis (Native-PAGE) loading buffer was added and samples loaded. Coomassie blue staining was used for protein visualization.

S. aureus PhoR (PhoR^S) [2] = target: T4, S. aureus PhoR (PhoR^S) (Staphylococcus aureus, UniProt Q2FXN7); assay: In vitro autophosphorylation kinase assay with γ-32P-ATP, PhoR^S; type: biochemical; conditions: IC50 PhoR^S, autophosphorylation, one time point (30 sec), 10% DMSO
T4 sequence (Q2FXN7 entry or part of it): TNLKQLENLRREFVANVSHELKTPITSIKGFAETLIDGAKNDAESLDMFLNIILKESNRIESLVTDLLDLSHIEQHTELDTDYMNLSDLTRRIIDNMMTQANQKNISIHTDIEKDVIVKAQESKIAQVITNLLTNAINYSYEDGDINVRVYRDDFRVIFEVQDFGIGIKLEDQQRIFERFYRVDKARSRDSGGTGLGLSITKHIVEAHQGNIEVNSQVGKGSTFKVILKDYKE
Experimental: as §3

[3] = system: Staphylococcus epidermidis; assay: Antibacterial susceptibility testing (MIC/MBC), S. epidermidis; type: cell-based; conditions: for MBC / MIC: Staphylococcus epidermidis
Experimental: as §2

Staphylococcus aureus = assay: Antibacterial susceptibility testing (MIC/MBC), S. aureus; type: cell-based; conditions: Staphylococcus aureus; for MBC: read-out: MBC S. aureus DSM 20231
Experimental: as §2

S. aureus PhoR (PhoR^S) [4] = target: T4, S. aureus PhoR (PhoR^S); assay: Aggregation analysis by native-PAGE, PhoR^S; conditions: 2 mM (S5 and S6 5 mM), 10% DMSO
Experimental: as §4

E. coli PhoR (PhoR^E) [5] = target: T3, E. coli PhoR (PhoR^E); assay: In vitro autophosphorylation kinase assay with γ-32P-ATP, PhoR^E; type: biochemical; conditions: autophosphorylation, one time point (30 sec), 10% DMSO; read-out: IC50 PhoR^E
Experimental: as §1

Streptococcus suis = assay: Antibacterial susceptibility testing (MIC), S. suis; type: cell-based; conditions: Streptococcus suis, read-out: MIC Streptococcus suis 3881/S10, strain 3881/S10
Experimental: (§5) Bacterial strains used in this study for antibacterial susceptibility testing (Table S5) were propagated using standard microbiological procedures. Minimal inhibitory concentrations (MICs) were determined following a standard double-dilution method. MICs were recorded as the lowest concentration of the compound where no visible growth was observed. After plating the dilutions around the MIC or growing them in fresh MH media, minimal bactericidal concentration (MBC) was recorded as the lowest concentration of the compound at which no colonies were formed or no growth was observed, respectively. For S. pneumoniae MICs were determined by adapting the standard double-dilution method to anaerobic conditions and of this microorganism (use of Todd Hewitt Yeast extract with 200 U/mL of catalase and continuous monitoring of growth).

Streptococcus pneumoniae = assay: Antibacterial susceptibility testing (MIC), S. pneumoniae; type: cell-based; conditions: strain 49619
Experimental: as §5

Acinetobacter baumannii = assay: Antibacterial susceptibility testing (MIC), A. baumannii; type: cell-based; conditions: MDR clinical isolate NM8, read-out: MIC A. baumannii NM8
Experimental: as §5

Hemolysis assay = type: cell-based; conditions: human
Experimental: Hemolytic activity against human erythrocytes taken from a healthy donor was measured as previously described. The hemolysis experiments were carried out in accordance with the guidelines of the United Arab Emirates University (UAEU) Research Ethics Review Board. All experimental protocols were approved by the Research Ethics Review Board of UAEU and informed consent was obtained from all donors.

Klebsiella pneumoniae = assay: Antibacterial susceptibility testing (MIC), K. pneumoniae; type: cell-based; conditions: Klebsiella pneumoniae, ATCC700603, strain ATCC 700603
Experimental: as §5

[6] = system: Stenotrophomonas maltophilia; assay: Antibacterial susceptibility testing (MIC), S. maltophilia; type: cell-based; conditions: clinical isolate B32/1, read-out: MIC S. maltophilia B32/1
Experimental: as §5

Pseudomonas aeruginosa = assay: Antibacterial susceptibility testing (MIC), P. aeruginosa; type: cell-based; conditions: Pseudomonas aeruginosa, ATCC27853; strain ATCC 27853
Experimental: as §5

[7] = Escherichia coli, strain CFT 073, read-out: MIC E. coli CFT 073

In the case of `CC(=O)Nc1cccc(C(C)NCc2cccc(Br)c2)c1` (stereo not shown) [S6], the IC50 (S. pneumoniae WalK; IC50 WalK) is reported as roughly 1000 µM, the IC50 (S. pneumoniae WalK; read-out: IC50 WalK) is reported as greater than 1000 µM and the MBC (Escherichia coli; Escherichia coli, strain CFT 073, read-out: MBC E. coli CFT 073) is reported as greater than 500 µg/mL. The MIC (Escherichia coli; [7]) was 500 µg/mL (≈ 1440 µM), the “MIC E. coli CFT 073” value (Escherichia coli; strain CFT 073) was 500^# μg/ml and the IC50 (T. maritima HK853) was greater than 5000 µM. For the same compound, the “HK aggregation, PhoR^E” value (E. coli PhoR (PhoR^E) [1]) was “do not cause HK aggregation”, the IC50 (S. aureus PhoR (PhoR^S) [2]) was 1140 µM and the MBC ([3]; DSM20044, strain DSM 20044) was greater than 500 µg/mL. The MIC ([3]; DSM20044, strain DSM 20044, read-out: MIC S. epidermidis DSM 20044) was 500 µg/mL (≈ 1440 µM), the “MIC S. epidermidis DSM 20044” value ([3]; strain DSM 20044) was 500^# μg/ml and the MBC (Staphylococcus aureus; DSM20231, strain DSM 20231) was greater than 500 µg/mL. The MIC (Staphylococcus aureus; DSM20231, strain DSM 20231, read-out: MIC S. aureus DSM 20231) was greater than 500 µg/mL, the “HK aggregation, PhoR^S” value (S. aureus PhoR (PhoR^S) [4]) was “do not cause HK aggregation” and the IC50 (E. coli PhoR (PhoR^E) [5]) was 372 µM and 370 µM.
`Nc1nc(-c2ccccc2Cl)cs1` [F1.6] showed an inhibition at 2000 µM (S. pneumoniae WalK; 2 mM, 30 sec, compared to negative control) greater than 50%, an IC50 (S. pneumoniae WalK; read-out: IC50 WalK) of less than 2000 µM and an MIC (Escherichia coli; Escherichia coli, ATCC25276, strain ATCC 25276, read-out: MIC E. coli ATCC 25276) greater than 500 µg/mL. It also gave an MIC (Escherichia coli; [7]) greater than 500 µg/mL, an MIC (Streptococcus suis) greater than 500 µg/mL and an MIC (Streptococcus pneumoniae) of 256 µg/mL (≈ 1220 µM). The MIC (Acinetobacter baumannii) was greater than 500 µg/mL, the HC50 (Hemolysis assay) was greater than 500 µg/mL and the MBC ([3]; DSM20044, strain DSM 20044) was 500 µg/mL (≈ 2370 µM). It also gave an MIC ([3]; clinical isolate T7/3, read-out: MIC S. epidermidis T7/3) of 125 µg/mL (≈ 593 µM), an MIC ([3]; clinical isolate T37/8, read-out: MIC S. epidermidis T37/8) greater than 500 µg/mL and an MIC ([3]; clinical isolate T6119, read-out: MIC S. epidermidis T6119) greater than 500 µg/mL. The MIC ([3]; strain RP62A (biofilm producer), read-out: MIC S. epidermidis RP62A) was greater than 500 µg/mL, the MIC ([3]; strain RP62A/1 (non-biofilm producer), read-out: MIC S. epidermidis RP62A/1) was greater than 500 µg/mL and the MIC ([3]; summary over clinical isolates, read-out: MICs for S. epidermidis clinical isolates) was 125 µg/mL (≈ 593 µM). For the same compound, the MIC (Klebsiella pneumoniae) was greater than 500 µg/mL, the MIC [6] was greater than 500 µg/mL and the MIC (Pseudomonas aeruginosa) was greater than 500 µg/mL. The MIC (Staphylococcus aureus; ATCC reference strain 25293, read-out: MIC S. aureus 25293) was 250 µg/mL (≈ 1190 µM), the MBC (Staphylococcus aureus; DSM20231, strain DSM 20231) was 250 µg/mL (≈ 1190 µM) and the MIC (Staphylococcus aureus; MRSA clinical isolate 127/08, read-out: MIC S. aureus 127/08) was 250 µg/mL (≈ 1190 µM). The MIC (Staphylococcus aureus; MRSA clinical isolate 145/08, read-out: MIC S. aureus 145/08) was 250 µg/mL (≈ 1190 µM), the MIC (Staphylococcus aureus; MRSA clinical isolate 274/08, read-out: MIC S. aureus 274/08) was 500 µg/mL (≈ 2370 µM) and the MIC (Staphylococcus aureus; MRSA, MRSA clinical isolate S908, read-out: MIC S. aureus S908) was 500 µg/mL (≈ 2370 µM). For the same compound, the MIC (Staphylococcus aureus; MRSA, MRSA clinical isolate T4/6, read-out: MIC S. aureus T4/6) was 250 µg/mL (≈ 1190 µM), the MIC (Staphylococcus aureus; MRSA, MRSA clinical isolate V4180, read-out: MIC S. aureus V4180) was greater than 500 µg/mL and the MIC (Staphylococcus aureus; MRSA, summary over strains, read-out: MICs for the MRSA strains and S. aureus 25293) was 125 to 500 µg/mL (≈ 593 to 2370 µM). For the same compound, the IC50 (E. coli PhoR (PhoR^E) [5]) was greater than 2000 µM.
